Activity calls are given as the source filed them. The calls are words filed in the database; no cut-off is given here.
Assays:
Senna obtusifolia = assay: Preemergence herbicidal activity against Senna obtusifolia (sicklepod) after 20 days; assay type: functional
Xanthium strumarium = assay: Pre-emergence herbicidal activity against Xanthium strumarium (cocklebur) after 20 days; assay type: functional
Galium aparine = assay: Pre-emergence herbicidal activity against Galium aparine after 20 days; assay type: functional
Chenopodium album = assay: Pre-emergence herbicidal activity against Chenopodium album after 20 days; assay type: functional
Abutilon theophrasti = assay: Preemergence herbicidal activity against Abutilon theophrasti (velvetleaf) after 20 days; assay type: functional
[1] = molecular target: 15-cis-phytoene desaturase (Synechococcus elongatus (strain PCC 7942) (Anacystis nidulans R2), UniProt P26294); assay: Inhibition of Synechococcus PCC 7942 phytoene desaturase expressed in Escherichia coli JM 101 by HPLC analysis; details: read-out: I50
Ipomoea hederacea = assay: Pre-emergence herbicidal activity against Ipomoea hederacea (ivy-leaved morning glory) after 20 days; assay type: functional
Amaranthus retroflexus = assay: Pre-emergence herbicidal activity against Amaranthus retroflexus after 20 days; assay type: functional
[2] = molecular target: 15-cis-phytoene desaturase (Synechococcus elongatus (strain PCC 7942) (Anacystis nidulans R2)) (UniProt P26294); assay: Non-competitive inhibition of Synechococcus PCC 7942 phytoene desaturase expressed in Escherichia coli JM 101 by Lineweaver-Burk plot analysis
[3] = molecular target: 15-cis-phytoene desaturase (Synechococcus elongatus (strain PCC 7942) (Anacystis nidulans R2)) (UniProt P26294); assay: Inhibition of Synechococcus PCC 7942 phytoene desaturase expressed in Escherichia coli JM 101 assessed as decrease in zeta-carotene content by HPLC analysis
[4] = Ratio of ED50 for Xanthium strumarium to ED50 for Cassia obtusifolia; assay type: functional
[5] = Ratio of ED50 for Xanthium strumarium to ED50 for Galium aparine; assay type: functional
[6] = Ratio of ED50 for Xanthium strumarium to ED50 for Chenopodium album; assay type: functional

Chain of 15-cis-phytoene desaturase (P26294 whole entry): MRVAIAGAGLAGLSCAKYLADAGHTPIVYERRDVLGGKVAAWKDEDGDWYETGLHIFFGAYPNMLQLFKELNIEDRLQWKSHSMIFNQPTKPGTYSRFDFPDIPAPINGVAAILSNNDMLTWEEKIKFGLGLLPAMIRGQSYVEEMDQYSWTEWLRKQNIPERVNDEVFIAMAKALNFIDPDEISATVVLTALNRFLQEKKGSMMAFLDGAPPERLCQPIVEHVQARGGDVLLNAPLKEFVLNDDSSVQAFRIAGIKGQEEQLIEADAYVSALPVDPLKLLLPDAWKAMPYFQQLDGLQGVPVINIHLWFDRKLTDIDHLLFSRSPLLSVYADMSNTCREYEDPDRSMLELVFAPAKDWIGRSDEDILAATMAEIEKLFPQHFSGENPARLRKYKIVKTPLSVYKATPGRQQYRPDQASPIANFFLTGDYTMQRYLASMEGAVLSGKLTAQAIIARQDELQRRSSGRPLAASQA
Chain of 15-cis-phytoene desaturase (Synechococcus elongatus (strain PCC 7942) (Anacystis nidulans R2)) (P26294 whole entry): as above

| Structure (SMILES) | IC50 [1] [µM] | inhibition [2] | inhibition [3] | ED50 (Senna obtusifolia) [g/ha] | ED50 (Xanthium strumarium) [g/ha] | ED50 (Galium aparine) [g/ha] | ED50 (Chenopodium album) [g/ha] | ED50 (Abutilon theophrasti) [g/ha] | ED50 (Ipomoea hederacea) [g/ha] | ED50 (Amaranthus retroflexus) [g/ha] | Ratio ED50 [4] | Ratio ED50 [5] | Ratio ED50 [6] |
| --- | --- | --- | --- | --- | --- | --- | --- | --- | --- | --- | --- | --- | --- |
| C[C@H]1CO[C@@H](Cc2cccc(C(F)(F)F)c2)C(=O)N1 | 3.8 | – | – | 1550 | 2300 | 1500 | 500 | 500 | 1500 | 600 | – | – | – |
| C[C@H]1CO[C@H](Cc2cccc(C(F)(F)F)c2)C(=O)N1 | 0.17 | Active | Active | 200 | 340 | 130 | 25 | 50 | 130 | 50 | – | – | – |
| C[C@@H]1CO[C@@H](Cc2cccc(C(F)(F)F)c2)C(=O)N1 | 19 | – | – | >10000 | >10000 | 4000 | >10000 | – | 4000 | >10000 | – | – | – |
| CN1CCOC(c2cccc(C(F)(F)F)c2)C1=O (racemic) | > 100 | – | – | >10000 | 9500 | >10000 | 10000 | 5500 | >10000 | >10000 | – | – | – |

More lines, main results first:

| IC50 [1] [µM] | inhibition [2] | inhibition [3] | Structure (SMILES) | ED50 (Senna obtusifolia) [g/ha] | ED50 (Xanthium strumarium) [g/ha] | ED50 (Galium aparine) [g/ha] | ED50 (Chenopodium album) [g/ha] | ED50 (Abutilon theophrasti) [g/ha] | ED50 (Ipomoea hederacea) [g/ha] | ED50 (Amaranthus retroflexus) [g/ha] | Ratio ED50 [4] | Ratio ED50 [5] | Ratio ED50 [6] |
| --- | --- | --- | --- | --- | --- | --- | --- | --- | --- | --- | --- | --- | --- |
| 3.2 | – | – | O=C1NCCOC1SCc1cccc(C(F)(F)F)c1 (racemic) | >10000 | >10000 | >10000 | >10000 | >10000 | >10000 | >10000 | – | – | – |
| > 100 | – | – | CN1CCOC(Cc2cccc(C(F)(F)F)c2)C1=O (racemic) | 500 | 8900 | 500 | 450 | 1400 | 500 | 1250 | 15 | 15 | 15 |
| 6.5 | – | – | O=C1NCCOC1Cc1cccc(C(F)(F)F)c1 (racemic) | 350 | 800 | 380 | 140 | 150 | 380 | 80 | – | – | – |
| 8.5 | – | – | O=C1NCCOC1Sc1cccc(C(F)(F)F)c1 (racemic) | 2500 | >10000 | 4800 | 850 | 1000 | 4800 | 780 | – | – | – |

Source: ChEMBL document CHEMBL3046936, “In vitro inhibition studies of phytoene desaturase by bleaching ketomorpholine derivatives” (J Agric Food Chem, 2001)
